Test results as given in US9828393B2, “Silylalkyloxyaryl compounds and methods for treating cancer” (THE REGENTS OF THE UNIVERSITY OF COLORADO, a body corporate, priority 2013, dated 2017).

Key:
Assay type in all cases: cell-based, human
M14 = experiment: NCI-60 cell line screen (SRB), M14; details: Homo sapiens, M14, 48 h
Description: (§1) Drug sensitivity data are provided as GI50s (concentrations required to inhibit growth by 50%). The first row of the text file identifies cell lines, separated by tabs. Subsequent rows contain compound number, compound name, and GI50 for each cell line, each separated by a tab. […] For a typical screening experiment, cells are inoculated into 96 well microtiter plates in 100 μL at plating densities ranging from 5,000 to 40,000 cells/well depending on the doubling time of individual cell lines. After cell inoculation, the microtiter plates are incubated at 37° C., 5% CO2, 95% air and 100% relative humidity for 24 h prior to addition of experimental drugs. After 24 h, two plates of each cell line are fixed in situ with TCA, to represent a measurement of the cell population for each cell line at the time of drug addition (Tz). Experimental drugs are solubilized in dimethyl sulfoxide at 400-fold the desired final maximum test concentration and stored frozen prior to use. At the time of drug addition, an aliquot of frozen concentrate is thawed and diluted to twice the desired final maximum test concentration with complete medium containing 50 μg/ml gentamicin. Additional four, 10-fold or one-half log serial dilutions are made to provide a total of five drug concentrations plus control. Aliquots of 100 μl of these different drug dilutions are added to the appropriate microtiter wells already containing 100 μl of medium, resulting in the required final drug concentrations. Following drug addition, the plates are incubated for an additional 48 h at 37° C., 5% CO2, 95% air, and 100% relative humidity. For adherent cells, the assay is terminated by the addition of cold TCA. Cells are fixed in situ by the gentle addition of 50 μl of cold 50% (w/v) TCA (final concentration, 10% TCA) and incubated for 60 minutes at 4° C. The supernatant is discarded, and the plates are washed five times with tap water and air dried. Sulforhodamine B (SRB) solution (100 μl) at 0.4% (w/v) in 1% acetic acid is added to each well, and plates are incubated for 10 minutes at room temperature. After staining, unbound dye is removed by washing five times with 1% acetic acid and the plates are air dried. Bound stain is subsequently solubilized with 10 mM trizma base, and the absorbance is read on an automated plate reader at a wavelength of 515 nm. For suspension cells, the methodology is the same except that the assay is terminated by fixing settled cells at the bottom of the wells by gently adding 50 μl of 80% TCA (final concentration, 16% TCA). Using the seven absorbance measurements [time zero, (Tz), control growth, (C), and test growth in the presence of drug at the five concentration levels (Ti)], the percentage growth is calculated at each of the drug concentrations levels. […]

SN12C = experiment: NCI-60 cell line screen (SRB), SN12C; details: Homo sapiens, 48 h
Description: as §1

TK-10 = experiment: NCI-60 cell line screen (SRB), TK-10; details: Homo sapiens, TK-10, 48 h
Description: as §1

NCI-H23 = experiment: NCI-60 cell line screen (SRB), NCI-H23; details: Homo sapiens, NCI-H23, 48 h
Description: as §1

T-47D = experiment: NCI-60 cell line screen (SRB), T-47D; details: Homo sapiens, T47D, 48 h
Description: as §1

UACC-62 = experiment: NCI-60 cell line screen (SRB), UACC-62; details: Homo sapiens, UACC-62, 48 h
Description: as §1

[1] = system: Prostate Cancer cell lines; experiment: NCI-60 cell line screen, Prostate Cancer panel average; details: Homo sapiens, read-out: GI50 Average
Description: as §1

Leukemia cell lines = experiment: NCI-60 cell line screen, Leukemia panel average; details: Homo sapiens, read-out: GI50 Average
Description: as §1

KM12 = experiment: NCI-60 cell line screen (SRB), KM12; details: Homo sapiens, KM12, 48 h
Description: as §1

HT29 = experiment: NCI-60 cell line screen (SRB), HT29; details: Homo sapiens, HT-29, 48 h
Description: as §1

SK-MEL-28 = experiment: NCI-60 cell line screen (SRB), SK-MEL-28; details: Homo sapiens, SK-MEL-28, 48 h
Description: as §1

PC-3 = experiment: NCI-60 cell line screen (SRB), PC-3; details: Homo sapiens, PC-3, 48 h
Description: as §1

UACC-257 = experiment: NCI-60 cell line screen (SRB), UACC-257; details: Homo sapiens, UACC-257, 48 h
Description: as §1

NCI-H460 = experiment: NCI-60 cell line screen (SRB), NCI-H460; details: Homo sapiens, NCI-H460, 48 h
Description: as §1

U-251 = experiment: NCI-60 cell line screen (SRB), U-251; details: Homo sapiens, U-251, 48 h
Description: as §1

SK-MEL-2 = experiment: NCI-60 cell line screen (SRB), SK-MEL-2; details: Homo sapiens, SK-MEL-2, 48 h
Description: as §1

NCI/ADR-RES = experiment: NCI-60 cell line screen (SRB), NCI/ADR-RES; details: Homo sapiens, 48 h
Description: as §1

MDA-MB-468 = experiment: NCI-60 cell line screen (SRB), MDA-MB-468; details: Homo sapiens, MDA-MB-468, 48 h
Description: as §1

Melanoma cell lines = experiment: NCI-60 cell line screen, Melanoma panel average; details: Homo sapiens, read-out: GI50 Average
Description: as §1

[2] = system: Ovarian Cancer cell lines; experiment: NCI-60 cell line screen, Ovarian Cancer panel average; details: Homo sapiens, read-out: GI50 Average
Description: as §1

BT-549 = experiment: NCI-60 cell line screen (SRB), BT-549; details: Homo sapiens, BT-549, 48 h
Description: as §1

LOX IMVI = experiment: NCI-60 cell line screen (SRB), LOX IMVI; details: Homo sapiens, 48 h
Description: as §1

SK-OV-3 = experiment: NCI-60 cell line screen (SRB), SK-OV-3; details: Homo sapiens, SK-OV-3, 48 h
Description: as §1

K-562 = experiment: NCI-60 cell line screen (SRB), K-562; details: Homo sapiens, K562, 48 h
Description: as §1

Breast Cancer cell lines = experiment: NCI-60 cell line screen, Breast Cancer panel average; details: Homo sapiens, read-out: GI50 Average
Description: as §1

Question: `CCCC[Si](C)(C)COc1ccc(C(=O)N[C@@H](Cc2ccc(-c3ccccc3)cc2)C(=O)NC2CC(C)(C)NC(C)(C)C2)cc1` [GH1504, N^α-{4-[(butyldimethylsilyl)methoxy]-benzoyl}-N-(2,2,6,6-tetramethylpiperidin-4-yl)-(4-phenyl-L-phenylalaninamide)] was tested. Which GI50 (M14) did it give?
Answer: 286 nM

Question: What about the GI50 (SN12C) of the same molecule?
Answer: 526 nM

Question: And the GI50 (TK-10)?
Answer: 1110 nM

Question: And the GI50 (NCI-H23)?
Answer: 1760 nM

Question: What about the GI50 (T-47D) of the same molecule?
Answer: 1820 nM

Question: What about the GI50 (UACC-62) of the same molecule?
Answer: 1150 nM

Question: And the GI50 [1]?
Answer: 834 nM

Question: What about the GI50 (Leukemia cell lines) of the same molecule?
Answer: 1170 nM

Question: What about the GI50 (KM12) of the same molecule?
Answer: 376 nM

Question: And the GI50 (HT29)?
Answer: 315 nM

Question: What about the GI50 (SK-MEL-28) of the same molecule?
Answer: 1330 nM

Question: And the GI50 (PC-3)?
Answer: 1300 nM

Question: What about the GI50 (UACC-257) of the same molecule?
Answer: 1780 nM

Question: What about the GI50 (NCI-H460) of the same molecule?
Answer: 348 nM

Question: And the GI50 (U-251)?
Answer: 238 nM

Question: What about the GI50 (SK-MEL-2) of the same molecule?
Answer: 944 nM

Question: What about the GI50 (NCI/ADR-RES) of the same molecule?
Answer: 1540 nM

Question: What about the GI50 (MDA-MB-468) of the same molecule?
Answer: 198 nM

Question: And the GI50 (Melanoma cell lines)?
Answer: 886 nM

Question: What about the GI50 [2] of the same molecule?
Answer: 1150 nM

Question: What about the GI50 (BT-549) of the same molecule?
Answer: 1960 nM

Question: And the GI50 (LOX IMVI)?
Answer: 207 nM

Question: What about the GI50 (SK-OV-3) of the same molecule?
Answer: 2120 nM

Question: What about the GI50 (K-562) of the same molecule?
Answer: 386 nM

Question: And the GI50 (Breast Cancer cell lines)?
Answer: 1170 nM
